# Assay results as given in patent US20230181553A1, “COMPOSITION FOR HAIR IMPROVEMENT” (Dr. Cherry Inc., priority 2020, published 2023).
# How the values were obtained:
# CD163 = assay: Gene expression in human scalp tissue after pioglitazone treatment (qPCR); assay type: in vivo; conditions: whole scalp three times once every two months, before vs 6 months after first treatment
# Protocol: (§1) A human subject was also checked. A suspension of pioglitazone was prepared in the same manner as in Example 2, and the whole amount of the suspension was applied to the head of a human subject. The PG treatment was performed on the whole scalp three times at a frequency of once every two months. A tissue around the test site was collected with a 3 mm punch before the treatment and 2 months after performing the treatment three times (6 months after the first treatment). The collected tissue was halved, and one half was fixed with 10% formalin, and stored under refrigeration. The other half was immersed in RNA Stabilization Solution (RNAlater, Thermo Fisher Scientific, Lithuania), and the resultant was frozen in liquid nitrogen, and stored at -80° C. Thereafter, the gene expression analysis was performed in the same manner as the rat gene expression analysis.
# (§2) A difference (ΔCt), in an expression level of mRNA, between ribosomal protein lateral stalk subunit P0 (Rp1P0) of a housekeeping gene and the target gene (average of Ct obtained from the qPCR reaction of each gene performed three times) was calculated, and in addition, a difference (ΔΔCt) in ΔCt between samples of the subject to be analyzed obtained before and after the treatment and a control (two persons not treated) was calculated. […]
# CD68 = assay: as above; assay type: in vivo; conditions: whole scalp three times once every two months, before vs 6 months after first treatment
# Protocol: as §1, §2
# hair cuticle = assay: Hair quality evaluation of hair cuticle by scanning electron microscope; assay type: in vivo, human
# Excerpt: The hair of the group administered with PG (administered twice a month) of Example 3 was collected, and in consideration of the growing rate (15 mm/month) of the hair of the patient, a portion corresponding to a period 2 months to 3 months (about 2.5 months) before the treatment and a portion corresponding to a period 4 months to 5 months (about 4.5 months) after starting the treatment were collected to be hermetically stored respectively in Ziploc(R). Thereafter, hair of a test site was adhesively fixed on a fixing plate with a resin. The resultant was hermetically stored, and on test day, was subjected to carbon fixation, and a state of hair cuticle was observed by an ordinary method with a scanning electron microscope on the same day. As a negative control, hair of the same patient in a portion not treated (untreated in the half side treatment) was used. Then, a portion of the hair newly grown (on the root side) and an existing portion (on the tip side) were compared with each other. A representative example is illustrated in FIG. 2. The same evaluation was performed on a larger number of patients (three patients[…]) (15 mg of PG, administered twice a month, administration 12 times in total, 6 months). The evaluation was performed 20 days after the final administration based on an electron microscope image in accordance with the following rating. The evaluation was performed by 6 doctors. An average of ratings was obtained. 5: Cuticle is aligned, and is not rough at all. 4: Cuticle is aligned than average, but is slightly rough. 3: Cuticle is aligned averagely. 2: Cuticle is rough than average, and is slightly peeled. […] Cuticle is rough as a whole, and is peeled as a whole.
# white hair = assay: Change in white hair (trichogram) after oral pioglitazone; assay type: in vivo, human; conditions: oral 15 mg once every day for 6 months
# Protocol: As pioglitazone, a 15 mg pioglitazone tablet “NP” was used. Each patient took one tablet containing 15 mg of pioglitazone around 10 o'clock in the morning once every day. Subjects were four patients ([…]). In each of the patients, lines were extended from both outer canthi toward the head, two points on these lines crossing a line extended between the both ears through the vertex were tattooed with an India ink, and a portion around the marked center was photographed under the same conditions. The patient had no white hair in a specific portion at the start, a temporal portion on the line extending between the both ears was tattooed with an Indian ink, and a portion around the marked center was photographed under the same conditions. Pioglitazone was taken continuously for 6 months, and the same test was performed every two months. For trichogram, a portion around the marked center was photographed (Canon Powder Shot […], Tokyo, Japan), and hair within a circle having a diameter of 11 mm (area: 95 mm^2) around the tattooed portion set as a center in an imaging range was photographed in two directions, and the number was visually counted to obtain an average of the two photographs.
# [1] = treated side relative to untreated side
smiles,measurement,setting,value
CCc1ccc(CCOc2ccc(CC3SC(=O)NC3=O)cc2)nc1 (stereo not shown) [pioglitazone],expression of CD163,CD163,found to increase
same,expression of CD68,CD68,found to increase
same,"hair quality rating, Root","hair cuticle; Treated Side, rating 1-5 (5: cuticle aligned, not rough at all), average of 6 doctors, three patients, 15 mg PG twice a month, 12 times, 20 days after final administration",3.7
same,"hair quality rating, Tip","hair cuticle; Treated Side, rating 1-5, average of 6 doctors, three patients, 15 mg PG twice a month, 12 times, 20 days after final administration",2.6
same,"state of hair cuticle, newly grown portion (root side) vs tip side","hair cuticle; treated hair, PG twice a month, representative example FIG. 2",the hair quality was obviously improved
same,"Degree of Improvement, Root",hair cuticle; [1],1.12
same,"Degree of Improvement, Tip",hair cuticle; [1],1.0
same,"decrease in number of white hairs, number before administration assumed 100",white hair; n = 3,23.2%
same,"decrease of white hair, average",white hair; n = 3,12.7 hairs/95 mm^2
same,change in white hair in shaved portion,white hair; three patients having white hair before the treatment,the white hair was decreased
